Results: publication PMC6597290 (Nature, 2019)

Legend:
[1] = target: T1, BT4096 (Bacteroides thetaiotaomicron, UniProt Q8A0C5); test: LC-MS time course of deacetylation; assay type: biochemical; details: Tris-HCl 10 mM pH 7, 2.5 mM MgSO4 and Mn, 37 °C; 0-250 µM substrate
T1 sequence (Q8A0C5 21-460): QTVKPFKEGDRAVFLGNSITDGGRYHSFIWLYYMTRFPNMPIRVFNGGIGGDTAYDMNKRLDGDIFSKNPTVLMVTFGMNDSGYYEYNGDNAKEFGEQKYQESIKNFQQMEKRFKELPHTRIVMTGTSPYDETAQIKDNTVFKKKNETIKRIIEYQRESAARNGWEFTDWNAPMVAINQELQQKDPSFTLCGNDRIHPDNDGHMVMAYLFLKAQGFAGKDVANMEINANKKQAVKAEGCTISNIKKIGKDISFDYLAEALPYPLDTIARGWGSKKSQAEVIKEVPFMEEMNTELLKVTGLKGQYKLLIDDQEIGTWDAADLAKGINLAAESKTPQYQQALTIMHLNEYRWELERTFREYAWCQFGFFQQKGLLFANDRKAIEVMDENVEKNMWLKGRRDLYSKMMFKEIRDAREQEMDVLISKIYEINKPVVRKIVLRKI

[2] = target: T2, BT2068 (Bacteroides thetaiotaomicron, UniProt Q8A618); test: LC-MS drug depletion by E. coli expressing bt2068; assay type: cell-based; details: whole E. coli cells, anaerobic, 37 °C
T2 sequence (Q8A618 1-253): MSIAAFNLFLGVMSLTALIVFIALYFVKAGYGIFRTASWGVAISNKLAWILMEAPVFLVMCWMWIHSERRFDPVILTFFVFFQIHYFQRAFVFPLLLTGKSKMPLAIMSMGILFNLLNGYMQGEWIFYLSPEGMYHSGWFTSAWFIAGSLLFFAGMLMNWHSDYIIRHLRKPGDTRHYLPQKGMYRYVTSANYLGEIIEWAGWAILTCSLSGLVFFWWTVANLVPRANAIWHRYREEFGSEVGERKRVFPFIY

Row | SMILES | LC-MS time course of deacetylation [1] | LC-MS drug depletion by E. coli expressing bt2068 [2]
1 | CNCCN1C(=O)[C@H](OC(C)=O)[C@H](c2ccc(OC)cc2)Sc2ccccc21 [N-desmethyldiltiazem] | BT4096 also deacetylates N-desmethyldiltiazem | 
2 | C#C[C@]1(O)CC[C@H]2[C@@H]3CCC4=CC(=O)CC[C@@H]4[C@H]3CC[C@@]21CC [levonorgestrel] |  | BT2068 also metabolizes the structurally related compounds levonorgestrel and progesterone
3 | CC(=O)[C@H]1CC[C@H]2[C@@H]3CCC4=CC(=O)CC[C@]4(C)[C@H]3CC[C@]12C [progesterone] |  | BT2068 also metabolizes the structurally related compounds levonorgestrel and progesterone
4 | COc1ccc([C@@H]2Sc3ccccc3N(CCN(C)C)C(=O)[C@@H]2OC(C)=O)cc1 [diltiazem] | demonstrated that the purified enzyme catalyzes the drug transformation (Fig. 3c) | 
